Experimental data as given in patent EP2197879B1, “C7-SUBSTITUTED CAMPTOTHECIN ANALOGS” (priority 2007, dated 2009).
pIC50: −log10 of the molar value. Read-outs that look alike come from different tables or passages of the source. Each block holds one compound with its values, some of them ahead of it.

Tests used:
angiogenesis = details: dose levels of 210 mg/kg; cited from earlier work
[1] = clinical studies in Japan alone; cited from earlier work
[2] = cited from earlier work
[3] = test system: A2780/WT (wild-type) cells; assay: Sulforhodamine B (SRB) cytotoxicity assay in A2780/WT cells; format: cell-based
Experimental: (§1) Each of the testing conditions used in this study in both A2780/WT (wild-type) and A2780/DX5 cells were repeated in five to fifteen experiments that were performed on separate days. Each experiment consisted of one microtiter plate with at least eight individual assays of a given drug treatment condition on the plate. The sulforhodamine B (SRB) assay was used to assess cytotoxicity and absorbance at 570 nm (A570) in order to calculate the percentage of cell control (or percent cell survival) for the various treatment conditions in the plate wells.
(§2) Roswell Park Memorial Institute (RPMI 1640) medium, fetal bovine serum (FBS), and L-glutamine were purchased from Gibco BRL. Drugs were dissolved in sterile dimethylsulfoxide (DMSO), from American Type Culture Collection (ATCC) for stock solutions (2.5 to 5.0 mM). Subsequent dilutions were made using cell culture medium (prior to adding the drug to cells). SRB was purchased from Sigma and dissolved in 1.0 percent acetic acid. Trichloroacetic acid was purchased from VWR International.
(§3) Cells were manipulated in a Class IIA/B3 Biological Safety Cabinet (Forma Scientific) and maintained at 37°C in a humidified atmosphere containing 5% CO2 in a water-jacketed cell culture incubator (Forma Scientific). Cells were counted using a Coulter-Z1 counter (Beckman-Coulter). Following drug treatment, plates were washed using a Biomek 2000 station (Beckman) and, following exposure to SRB dye, plates were washed using an automated plate washer (Model EL404, Bio-Tek Instruments). Percentage of control was correlated to A570 values and determined using a Model EL800 plate reader (Bio-Tek Instruments).
(§4) Population doubling times for the two cell lines used in this study encompassed a total of five cell doublings corresponding to approximately 5 days for A2780/WT and A2780/DX5 cells. A2780/WT and A2780/DX5 cells were cultured in RPMI 1640 medium supplemented with 10% fetal bovine serum and 1 mM of L-glutamine. Both cell lines were maintained as monolayered cultures in T-25 or T-75 flasks and then seeded to microtiter plate wells for experiments described herein. Prior to SRB assays, cell viability was monitored by evaluation of microtiter plate wells. Dead cells detach and float while living cells remain attached to the bottom of the cell well.
(§5) The sulforhodamine B (SRB) cytotoxicity assay (see, Skehan P, et al., New colorimetric cytotoxicity assay for anticancer-drug screening. J. Natl. Cancer Inst. 82:1107-1112 (1990)) was used to determine the cytotoxic effects of BNP1350, SN-38, topotecan, 9-NH2-CPT, and 9-NO2-CPT on cell growth in vitro. Briefly, after the medium was aspirated from individual plate wells, trichloroacetic acid (100 µL of 10.0% solution) was added to each well, and the plates were incubated at 4°C for at least 1 hour. The plates were washed five-times with water using an automated microplate washer (Model EL 404, Bio-Tek Instruments), SRB solution (100 µL of 0.4 grams SRB dissolved in 100 mL 1.0 percent acetic acid) was added, and plates remained at room temperature for 15 minutes. The plates were then washed five-times using acetic acid (1.0%), air dried, and bound dye was solubilized in Tris base (150 µL, 10 mM). Plates were agitated (gently) for 5 minutes and the absorbance values of the SRB dye-protein adduct at a 570 nm wavelength (A570) were determined using an automated microtiter plate reader equipped with an A570 filter (Model EL800, BioTek Instruments). Table VII. Summary of Cytotoxicity Experiments in A2780/WT and DX5 Cells

A2780/DX5 cells = assay: Sulforhodamine B (SRB) cytotoxicity assay in A2780/DX5 cells; format: cell-based; details: for IC50 Ratio: A2780/DX5 versus A2780/WT
Experimental: as §1, §2, §3, §4, §5

[4] = test system: advanced malignant melanoma; details: 90-360 mg/m^2 repeated every 2 weeks; fifteen patients; cited from earlier work
[5] = cited from earlier work; for No. of Patients With Cystitis / No. of Patients With Diarrhea: 5-day Course; for Number of Patients with Cystitis / Number of Patients with Diarrhea: Single-Dose Method
[6] = test system: advanced gastrointestinal cancer; details: cited from earlier work
[7] = cited from earlier work; remark: listed apart in the source
[8] = test system: panel of over 20 human cancer cell lines; assay: In vitro antitumor potency on a panel of human cancer cell lines; details: compared with Topotecan or SN-38
[9] = 100 nM Compound Concentrations, 48 hours or longer at room temperature
[10] = Homo sapiens, SRB assay, A2780/WT cells, read-out: A2780/ WT (IC50)
[11] = Homo sapiens, SRB assay, A2780/DX5 cells, read-out: A2780/ DX5 (IC50)
[12] = Homo sapiens, A2780, read-out: A2780/ WT (IC50)
[13] = 5-Day Course (27 Patients Total), 4 wks
[14] = 5-Day Course (27 Patients Total), 8 wks
[15] = 5-Day Course (27 Patients Total), 12 wks
[16] = Single-Dose Method (34 Patients Total), 3 wks
[17] = Single-Dose Method (34 Patients Total), 6 wks
[18] = Single-Dose Method (34 Patients Total), 9 wks
[19] = Single-Dose Method (34 Patients Total), 12 wks

Compound: CCc1c2c(nc3ccc(OC(=O)N4CCC(N5CCCCC5)CC4)cc13)-c1cc3c(c(=O)n1C2)COC(=O)[C@]3(O)CC [CPT-11, 7-ethyl-10-[4-(1-piperidino)-1-piperidino] carbonyloxy camptothecin]
neovascularization (angiogenesis): significant reduction of neovascularization
patient deaths directly attributable to drug toxicity [1]: approximately 100

Compound: CC[C@@](O)(C(=O)O)c1cc2n(c(=O)c1CO)Cc1cc3ccccc3nc1-2 [carboxylate form of CPT]
anti-tumor potency relative to the original, non-hydrolyzed lactone form ([2]; carboxylate form from sodium hydroxide formulation): approximately one-tenth or less
anti-tumor activity reduced ([2]; carboxylate form versus lactone): at least 10 fold

Compound: CCc1c2c(nc3ccc(O)cc13)-c1cc3c(c(=O)n1C2)COC(=O)[C@]3(O)CC [SN-38, 10-hydroxy-7-ethyl camptothecin]
Percent of Free Camptothecin Analogs in Human Plasma (human plasma proteins; [9]): 15%

Compound: CC[C@@]1(O)C(=O)OCc2c1cc1n(c2=O)Cc2c-1nc1ccccc1c2CC[Si](C)(C)COC(C)=O [Compound 6, acetic acid-(4S)-{[2-(4-ethyl-4-hydroxy-3,13-dioxo-3,4,12,13-tetrahydro-1H-2-oxa-6,12a-diaza-dibenzo[b,h]fluoren-11-yl)-ethyl]-dimethylsilanyl}-methyl ester]
pIC50 [3, 10]: 8.03
IC50 Ratio (A2780/DX5 cells): 2.27
pIC50 (A2780/DX5 cells; [11]): 7.68
Percent of Free Camptothecin Analogs in Human Plasma (human plasma proteins; human, 100 nM): 5%

Compound: CC[C@@]1(O)C(=O)OCc2c1cc1n(c2=O)Cc2c-1nc1ccccc1c2CC[Si](C)(C)CCl [Compound 3, 11-(4S)-[2-(chloromethyldimethylsilanyl)-ethyl]-4-ethyl-4-hydroxy-1,12-dihydro-4H-2-oxa-6,12a-diaza-dibenzo[b,h]fluorene-3,13-dione]
pIC50 [3, 12]: 8.00
IC50 Ratio (A2780/DX5 cells): 1.45
pIC50 (A2780/DX5 cells; Homo sapiens, A2780, read-out: A2780/ DX5 (IC50)): 7.84
Percent of Free Camptothecin Analogs in Human Plasma (human plasma proteins; [9]): 1%

Compound: CC[C@@]1(O)C(=O)OCc2c1cc1n(c2=O)Cc2c-1nc1ccccc1c2CC[Si](C)(C)Cn1cncn1 [Compound 30, (4S)-11-[2-(dimethyl-[1,2,4]triazol-1-ylmethylsilanyl)-ethyl]-4-ethyl-4-hydroxy-1,12-dihydro-4H-2-oxa-6,12a-diaza-dibenzo[b,h]fluorene-3,13-dione]
pIC50 [3, 12]: 8.11
IC50 Ratio (A2780/DX5 cells): 7.8
pIC50 (A2780/DX5 cells; [11]): 7.22
Percent of Free Camptothecin Analogs in Human Plasma (human plasma proteins; human, 100 nM): 8%

Compound: CC[C@@]1(O)C(=O)OCc2c1cc1n(c2=O)Cc2cc3ccccc3nc2-1 [CPT sodium]
patients with a 50% or greater decrease in tumor diameter [4]: None
patients with less pronounced transient tumor regression [4]: three
patients with myelosuppression [4]: 11
Cystitis ([5]; 5-Day Course): 48 (P<0.05) % of 27 Patients
No. of Patients With Cystitis ([5]; 11 mg/m^2 X 5): 1
No. of Patients With Cystitis ([5]; 15 mg/m^2 X 5): 4
No. of Patients With Diarrhea ([5]; 15 mg/m^2 X 5): 1
No. of Patients With Cystitis ([5]; 17 mg/m^2 X 5): 2
No. of Patients With Diarrhea ([5]; 17 mg/m^2 X 5): 4
No. of Patients With Cystitis ([5]; 20 mg/m^2 X 5): 6
No. of Patients With Diarrhea ([5]; 20 mg/m^2 X 5): 4
No. of Patients With Diarrhea ([5]; 22 mg/m^2 X 5): 1
Cystitis ([5]; Single Dose): 24 % of 34 Patients
Number of Patients with Cystitis ([5]; 100 mg/m^2): 2
Number of Patients with Cystitis ([5]; 110 mg/m^2): 1
Number of Patients with Diarrhea ([5]; 110 mg/m^2): 1
Number of Patients with Cystitis ([5]; 120 mg/m^2): 2
Number of Patients with Diarrhea ([5]; 120 mg/m^2): 4
Number of Patients with Cystitis ([5]; 180 mg/m^2): 3
Number of Patients with Diarrhea ([5]; 180 mg/m^2): 2
Objective Results: Improved [6, 13]: 1
Objective Results: Stable [6, 13]: 12
Objective Results: Worse [6, 13]: 14
Objective Results: Stable [6, 14]: 7
Objective Results: Worse [6, 14]: 20
Objective Results: Stable [6, 15]: 6
Objective Results: Worse [6, 15]: 21
Objective Results: Improved [6, 16]: 4
Objective Results: Stable [6, 16]: 17
Objective Results: Worse [6, 16]: 13
Objective Results: Improved [6, 17]: 2
Objective Results: Stable [6, 17]: 11
Objective Results: Worse [6, 17]: 21
Objective Results: Improved [6, 18]: 2
Objective Results: Stable [6, 18]: 8
Objective Results: Worse [6, 18]: 24
Objective Results: Stable [6, 19]: 6
Objective Results: Worse [6, 19]: 28
patients with partial objective improvement ([6]; after 2 months (8 or 9 weeks), of 61 patients): two
patients with improvement ([6]; at 3 months, of 61 patients): none
patients who showed a 25%-50% response ([6]; at 3 wks, only): *A total of 3 patients showed a 25%-50% response at 3 wks, only.
patients with dose limiting bladder toxicity ([7]; doses of 20 to 30 mg/m^2): three
additional patients with bladder toxicity ([7]; doses of 30 and 44 mg/m^2): two
clinical benefit ([7]; eight patients with measurable disease, 5-day courses): No clinical benefit

Compound: CC[C@@]1(O)C(=O)OCc2c1cc1n(c2=O)Cc2c-1nc1ccccc1c2CC[Si](C)(C)C [Karenitecin, (4S)-4-ethyl-4-hydroxy-11-[2-(trimethylsilyl)ethyl]-1H-pyrano[3':4':6,7]indolizino[1,2-b]quinoline-3,14(4H,12H)-dione]
Percent of Free Camptothecin Analogs in Human Plasma (human plasma proteins): 1.2%
protein-bound (human plasma proteins): 98-99%
antitumor potency [8]: significantly more potent

Compound: CCc1c2c(nc3ccccc13)-c1cc3c(c(=O)n1C2)COC(=O)[C@]3(O)CC [SN-22]
Percent of Free Camptothecin Analogs in Human Plasma (human plasma proteins; [9]): 1%

Percent of Free Camptothecin Analogs in Human Plasma (human plasma proteins; [9]): 100%
Compound: CC[C@@]1(O)C(=O)OCc2c1cc1n(c2=O)Cc2cc3c(CN(C)C)c(O)ccc3nc2-1 [Topotecan, 9-dimethylaminomethyl-10-hydroxy camptothecin]

Compound: CC[C@@]1(O)C(=O)OCc2c1cc1n(c2=O)Cc2c-1nc1ccccc1c2CC[Si](C)(C)CCCO [Compound 10, 4S-4-ethyl-4-hydroxy-11-{2-[(3-hydroxypropyl)-dimethylsilanyl]-ethyl}-1,12-dihydro-4H-2-oxa-6,12a-diaza-dibenzo[b,h]fluorene-3,13-dione]
pIC50 ([3]; SRB assay, A2780/WT cells, read-out: A2780/ WT (IC50)): 8.02
IC50 Ratio (A2780/DX5 cells): 3.68
pIC50 (A2780/DX5 cells; SRB assay, A2780/DX5 cells, read-out: A2780/ DX5 (IC50)): 7.45
Percent of Free Camptothecin Analogs in Human Plasma (human plasma proteins; [9]): 3.4%

Compound: CC[C@@]1(O)C(=O)OCc2c1cc1n(c2=O)Cc2c-1nc1ccccc1c2CC[Si](C)(C)O [Compound 46, (4S)-4-Ethyl-4-hydroxy-11-[2-(hydroxydimethylsilanyl)-ethyl]-1, 12-dihydro-4H-2-oxa-6,12a-diaza-dibenzo[b,h]fluorene-3,13-dione]
pIC50 [3, 10]: 8.00
IC50 Ratio (A2780/DX5 cells): 5.0
pIC50 (A2780/DX5 cells; [11]): 7.30
